Experimental data as given in patent publication US11091437B2, “Aryl isonitriles as a new class of antimicrobial compounds” (Purdue Research Foundation, priority 2015, dated 2021).
≈ marks a conversion by molar mass, not a printed value. Like-named read-outs stand apart in the source and are kept apart here.

What was measured:
[1] = tested on: MRSA; test: MIC by broth microdilution against MRSA, VISA and VRSA strains; assay type: cell-based, Staphylococcus aureus; conditions: for antimicrobial activity (in words): MRSA strains tested
Experimental: The bacterial growth inhibiting activity of these synthetic analogs of hit compound 1 were subsequently evaluated (FIG. 3).
The minimum inhibitory concentration (MIC) of each compound and linezolid was determined against eight different strains of MRSA, VISA, and VRSA using a modified version of the broth microdilution method, outlined by the CLSI. Institute CaLS, Methods for Dilution Antimicrobial Susceptibility Tests for Bacteria That Grow Aerobically—Seventh Edition: Approved Standard M7-A7. 7 ed. Wayne, Pa. 2011. The same analysis was performed with vancomycin against the VISA and VRSA strains tested. A bacterial suspension (˜1 Å˜10^5 CFU/mL) was prepared in Tryptic soy broth (TSB) and then transferred to a microtiter plate. Each agent tested was added (in triplicate) to wells in the first row of the plate and then serially diluted downward.

[2] = tested on: S. aureus exhibiting resistance to vancomycin (VRS2); test: MIC by broth microdilution against vancomycin-resistant S. aureus; assay type: cell-based; conditions: Staphylococcus aureus; vancomycin-resistant clinical isolate VRS2
[3] = tested on: MRSA USA300; test: whole-cell screening of in house small molecules; assay type: cell-based, Staphylococcus aureus; conditions: MRSA USA300, whole-cell screening hit
From the text: A whole-cell screening of a small number of in house generated small molecules with diverse structural skeletons (about 250 molecules) has been conducted against MRSA USA300 with the aim to identify compounds with novel skeletons to target antibiotic drug resistance. […] Marconi, G. G. et al., J. Antibiot, 1978, 31, 27-32; Mo, S. et al., J. Nat. Prod. 2009, 72, 894-899; Raveh, A. et al., J. Nat. Prod. 2007, 70, 196-201; Sugawara, T. et al., J. Antibiot, 1997, 50, 944-948; Fujiwara, A. et al., Agric. Biol. Chem. 1982, 46, 1803-1809, Marquez, J. A. et al., J. Antibiot, 1983, 36, 1101-1108. The novel structural skeleton of compound 1 as an antibacterial compound against drug resistant strains prompted further study of these types of isonitrile compounds. Herein is reported the chemical synthesis, structure-activity relationship study, and evaluation of the antibacterial performance of compound 1 and closely related analogs against several clinically-relevant MRSA and VRSA strains.

[4] = tested on: murine macrophage (J774) cell line; test: MTS toxicity assay against mammalian cells
[5] = tested on: Caco-2 cell monolayer; conditions: human
[6] = human, microsomes, 1 h
[7] = physchem; conditions: aqueous buffer, kinetic from dmso stock
[8] = in vitro; conditions: human, Caco-2
[9] = Staphylococcus aureus, broth microdilution, over the MRSA strains tested, read-out: MIC against MRSA

[C-]#[N+]c1ccc(C)cc1-c1ccc(C(F)(F)F)cc1 [Compound 50, 2-isocyano-5-methyl-4′(trifluoromethyl)-1,1′-biphenyl]
antimicrobial activity (in words) ([1]; broth microdilution): loss in antimicrobial activity

[C-]#[N+]c1ccc(/C=C/c2ccncc2)cc1 [Compound 35, (E)-4-(4-isocyanostyryl)pyridine]
activity relative to ortho- and meta-substituted 33 and 34 ([1]; all the strains tested): much more active
MIC [2]: 2 to 16 µM (≈ 0.412 to 3.3 µg/mL)

[C-]#[N+]c1ccccc1/C=C(\CC)c1ccccc1 [Compound 1, (E)-1-isocyano-2-(2-phenylbut-1-en-1-yl)benzene]
concentration inhibiting bacterial growth [3]: 32 µM
MIC [1, 9]: 8 to 64 µM (≈ 1.87 to 14.9 µg/mL)

[C-]#[N+]c1ccccc1/C=C/c1ccc(CCCC)cc1 [Compound 24, (E)-1-(4-butylstyryl)-2-isocyanobenzene]
MIC ([1]; Staphylococcus aureus, MRSA, read-out: MIC against most MRSA strains tested): > 128 µM

[C-]#[N+]c1ccc(/C=C/c2cccnc2)cc1 [Compound 32, (E)-3-(4-isocyanostyryl)pyridine]
MIC [2]: 2 to 16 µM (≈ 0.412 to 3.3 µg/mL)

[C-]#[N+]c1ccc(/C=C/c2ccccc2)cc1 [Compound 37, (E)-1-isocyano-4-styrylbenzene]
activity relative to ortho-substituted compound 13 ([1]; MSSA (NRS72) and MRSA USA500): slight improvement
toxicity to J774 cells at 128 μM [4]: not toxic

[C-]#[N+]c1ccccc1/C=C/c1ccncc1 [Compound 33, (E)-4-(2-isocyanostyryl)pyridine]
antimicrobial activity (in words) ([1]; broth microdilution): reduced antimicrobial activities

[C-]#[N+]c1ccccc1/C=C/c1cccc(OC)c1 [Compound 15, (E)-1-isocyano-2-(3-methoxystyryl)benzene]
toxicity to J774 cells at 128 μM [4]: not toxic

[C-]#[N+]c1ccccc1/C=C/c1ccc(C)cc1 [Compound 23, (E)-1-isocyano-2-(4-methylstyryl)benzene]
MIC [1, 9]: 4 to 64 µM (≈ 0.877 to 14 µg/mL)

[C-]#[N+]c1ccccc1/C=C/c1ccccn1 [Compound 27, (E)-2-(2-isocyanostyryl)pyridine]
antimicrobial activity (in words) ([1]; broth microdilution): reduced antimicrobial activities

[C-]#[N+]c1ccccc1/C=C(\CC)c1cccc(C(F)(F)F)c1 [Compound 12]
toxicity to J774 cells at 64 μM [4]: toxic

[C-]#[N+]c1ccccc1/C=C/c1cccnc1 [Compound 30, (E)-3-(2-isocyanostyryl)pyridine]
antimicrobial activity (in words) ([1]; broth microdilution): reduced antimicrobial activities
toxicity to J774 cells at 128 μM [4]: not toxic

[C-]#[N+]c1ccccc1/C=C(\CC)c1ccc(C(F)(F)F)cc1 [Compound 10, (E)-1-isocyano-2-(2-(4-(trifluoromethyl)phenyl)but-1-en-1-yl)benzene]
MIC [2]: 2 to 16 µM (≈ 0.603 to 4.82 µg/mL)

[C-]#[N+]c1ccccc1/C=C/c1ccccc1 [Compound 13, (E)-1-isocyano-2-styrylbenzene]
MIC [1, 9]: ≥ 2 µM
reduction in the MIC against MRSA relative to compound 1 ([1]; removal of the ethyl group of 1): two-to-eight
apparent permeability Papp, apical (A) to basolateral (B) [5]: 0.0 cm/sec
apparent permeability Papp, basolateral to apical [5]: 0.0 cm/sec
parent compound remaining after one hour [6]: 24%
parent compound remaining after one hour, NADPH not present [6]: 51%
solubility [7]: 1 to 100 µM (≈ 0.205 to 20.5 µg/mL)
concentration up to which not toxic to mammalian cells ([4]; J774 cells): 64 µM

[C-]#[N+]c1ccccc1C=C1CCCCC1 [Compound 26, 1-(cyclohexylidenemethyl)-2-isocyanobenzene]
activity against MRSA USA300, MRSA USA500 and MRSA NRS119 ([1]; strains USA300, USA500, NRS119): inactive

CC(=O)CC(c1ccccc1)c1c(O)c2ccccc2oc1=O (stereo not shown) [warfarin]
Papp B→A [8]: 27 ×10⁻⁶ cm/s

[C-]#[N+]c1ccccc1CP(=O)(OCC)OCC [Compound 4a, diethyl (2-isocyanobenzyl)phosphonate]
MIC ([1]; broth microdilution, over the MRSA strains tested, read-out: MIC against MRSA): > 128 µM

[C-]#[N+]c1ccccc1CCc1ccccc1 [Compound 53, 1-isocyano-2-phenethylbenzene]
potency relative to compound 13 ([1]; all strains tested except VISA NRS1): less potent
activity against MRSA USA100, MRSA USA300, MRSA NRS119 and VISA NRS1 ([1]; strains USA100, USA300, NRS119, VISA NRS1): active

[C-]#[N+]c1ccccc1/C=C/c1ccc([N+](=O)[O-])cc1 [Compound 25, (E)-1-isocyano-2-(4-nitrostyryl)benzene]
MIC [2]: 2 to 16 µM (≈ 0.501 to 4 µg/mL)
toxicity to J774 cells at 32 μM ([4]; 32 μM): toxic
toxicity to J774 cells at 64 μM [4]: toxic

[C-]#[N+]c1ccccc1/C=C/c1cccc(F)c1 [Compound 19, (E)-1-(3-fluorostyryl)-2-isocyanobenzene]
toxicity to J774 cells at 64 μM [4]: toxic
